Source: patent US20100261682A1, “Method and Means for the Treatment of Cachexia” (Bioneris AB, priority 2007, published 2010)

Tests used:
[1] = tested on: p42; test: Western blot of gastrocnemius muscle: p42; format: in vivo, NMRI mice; conditions: 40 mg/kg s.c., 3 times per day
Method: (§1) Administration of alpha-trinositol. Mice (n=6) bearing the MAC16 tumour were treated with AT (40 mg/kg) s.c., 3 times per day, for 5 days, while a control group received PBS. Protein synthesis and degradation were determined by the incorporation and release of L-[2,6-^3H]phenylalanine, as described in Smith et al., Cancer Res., 2005; 65:277-83. On the fourth day of treatment half of the group administered 0.4 mmol/L L-[2,6-^3H]phenylalanine in PBS (100 μl) by i.p. administration.
(§2) Western blot analysis Gastrocnemius muscle (10 mg) was homogenised in Phosphosafe™ Extraction Reagent (500 μl) and centrifuged at 15000 g for 15 min. Samples of the cytosolic proteins (5 μg) were loaded on either a 10% (mTOR, myosin, eIF4E and eIF4G) 12% (PKR, eIF2α and actin) or 15% (4E-BP1) sodium dodecylsulphate-polyacrylamide gel (SDS-PAGE) and electrophoresed at 180 V for approximately 1 h. The extent of phosphorylation of 4E-BP1, and the association of 4E-BP1 and eIF4G with eIF4E was determined by Western blotting when eIF4E was extracted from the muscle samples by m^7GTP-Sepharose 4B-affinity binding, as previously described Eley ey al., Biochem J., 2007; 407:113-20, by loading 20 μg of protein. […] Blots were scanned by a densitometer to quantify differences.

[2] = tested on: myosin; test: Western blot of gastrocnemius muscle: myosin; format: in vivo, NMRI mice; conditions: 40 mg/kg; treatment for 4 days; reduced by 90% in untreated tumour-bearing mice
Method: as §1, §2

[3] = tested on: Ang II induced protein degradation in murine myotubes; test: Ang II-induced protein degradation in murine myotubes; format: cell-based; conditions: AT 100 μM, 2 h prior to addition of Ang II
Method: To investigate the mechanism by which AT protects lean body mass in cachexia, further experiments were carried out in vitro using murine myotubes as a surrogate model of skeletal muscle. Incubation with either PIF or angiotensin II (Ang II) induced protein degradation with a characteristic bell-shaped dose-response curve as previously reported (Smith et al., 2004, Br. J. Cancer, and Tisdale et al., 2006, Cell. Sig) with the maximal effect of PIF at 4.2 nM and Ang II at 0.5 μM (FIGS. 5 and 8).

[4] = tested on: Angiotensin II induced chymotrypsin like activity in C2C12 myotubes; test: Angiotensin II induced chymotrypsin-like activity in C2C12 myotubes; format: cell-based, murine; conditions: AT 100 μM
Excerpt: Protein degradation induced by PIF is mediated through up-regulation of the ubiquitin-proteasome pathway (Tisdale et al., 2004, Br. J. Cancer). […] A hexanoyl ester of AT (lipid soluble AT) has been produced as a slow release form, after hydrolysis by esterase.

effect on Ang II-induced chymotrypsin-like enzyme activity [4]: completely attenuated
Structure (SMILES): O=P(O)(O)O[C@@H]1[C@H](OP(=O)(O)O)[C@H](O)[C@@H](O)[C@H](O)[C@H]1OP(=O)(O)O [alpha-trinositol, 1-D-Myo-inositol 1,2,6-triphosphate]
expression of p42 in gastrocnemius muscle [1]: down-regulates
myosin expression in gastrocnemius muscle [2]: returned to values at the same level as in non-tumour animals
effect on Ang II-induced protein degradation [3]: completely attenuated protein degradation down to basal levels
